In ChEMBL document CHEMBL1145802, “Dual probes for the dopamine transporter and sigma1 receptors: novel piperazinyl alkyl-bis(4'-fluorophenyl)amine analogues as potential cocaine-abuse therapeutic agents” (J Med Chem, 2003) one finds Ki and Ratio data, which are given here for 18 compounds.

Assay [1] has as its target Sodium-dependent dopamine transporter (Rattus norvegicus, UniProt P23977). In words: Binding affinity against dopamine transporter was determined by the displacement of [3H]WIN-35428 radioligand in rat brain. The format is tissue-based.
Assay [2] concerns the target Sodium-dependent serotonin transporter (Rattus norvegicus, UniProt P31652). Put plainly: Binding affinity against serotonin transporter by displacement of [3H]citalopram in rat brain. The format is tissue-based.
For assay [3], the target named is Monoamine transporters; Norepininephrine & dopamine (Rattus norvegicus) (UniProt P23977+Q9WTR4). In words: Ratio of binding affinities for dopamine and norepinephrine transporters. The format is protein assay.
The target of assay [4] is Monoamine transporters; serotonin & dopamine (Rattus norvegicus) (UniProt P31652+P23977). In words: Ratio for the binding affinities of dopamine transporter over serotonin transporter. The format is protein assay.
For the next assay, the species on record is Cavia porcellus. In words: Ratio of binding affinities for dopamine transporter over sigma-1 receptor.
The target of a further assay is Sigma 2 receptor. Put plainly: Binding affinity against Sigma receptor type 2 was determined by the displacement of [3H]DTG/dextrallorphan radioligand. Also noted: species or system Rattus norvegicus.
Assay [5] concerns the target Norepinephrine transporter (Rattus norvegicus, UniProt Q9WTR4). Put plainly: Displacement of [3H]nisoxetine from rat brain norepinephrine transporter. The format is tissue-based.

Chain of Sodium-dependent serotonin transporter (P31652 whole entry): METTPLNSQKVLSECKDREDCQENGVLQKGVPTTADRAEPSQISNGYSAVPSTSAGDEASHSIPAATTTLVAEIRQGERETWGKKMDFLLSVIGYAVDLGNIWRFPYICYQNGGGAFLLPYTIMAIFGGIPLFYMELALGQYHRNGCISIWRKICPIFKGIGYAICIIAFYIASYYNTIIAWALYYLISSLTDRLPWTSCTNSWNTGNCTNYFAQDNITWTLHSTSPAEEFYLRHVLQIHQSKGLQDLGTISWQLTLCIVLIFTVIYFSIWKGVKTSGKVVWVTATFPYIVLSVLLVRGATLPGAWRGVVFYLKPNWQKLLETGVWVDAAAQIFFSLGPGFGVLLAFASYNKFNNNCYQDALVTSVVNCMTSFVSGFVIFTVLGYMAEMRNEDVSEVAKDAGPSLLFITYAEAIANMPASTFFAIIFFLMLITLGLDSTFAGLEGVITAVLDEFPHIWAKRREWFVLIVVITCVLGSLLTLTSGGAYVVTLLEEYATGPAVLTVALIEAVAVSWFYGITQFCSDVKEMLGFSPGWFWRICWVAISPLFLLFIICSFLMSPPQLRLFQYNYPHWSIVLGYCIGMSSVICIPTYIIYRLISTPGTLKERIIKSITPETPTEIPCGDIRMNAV
Chain of Monoamine transporters; serotonin & dopamine (Rattus norvegicus) (P23977 whole entry, looked up): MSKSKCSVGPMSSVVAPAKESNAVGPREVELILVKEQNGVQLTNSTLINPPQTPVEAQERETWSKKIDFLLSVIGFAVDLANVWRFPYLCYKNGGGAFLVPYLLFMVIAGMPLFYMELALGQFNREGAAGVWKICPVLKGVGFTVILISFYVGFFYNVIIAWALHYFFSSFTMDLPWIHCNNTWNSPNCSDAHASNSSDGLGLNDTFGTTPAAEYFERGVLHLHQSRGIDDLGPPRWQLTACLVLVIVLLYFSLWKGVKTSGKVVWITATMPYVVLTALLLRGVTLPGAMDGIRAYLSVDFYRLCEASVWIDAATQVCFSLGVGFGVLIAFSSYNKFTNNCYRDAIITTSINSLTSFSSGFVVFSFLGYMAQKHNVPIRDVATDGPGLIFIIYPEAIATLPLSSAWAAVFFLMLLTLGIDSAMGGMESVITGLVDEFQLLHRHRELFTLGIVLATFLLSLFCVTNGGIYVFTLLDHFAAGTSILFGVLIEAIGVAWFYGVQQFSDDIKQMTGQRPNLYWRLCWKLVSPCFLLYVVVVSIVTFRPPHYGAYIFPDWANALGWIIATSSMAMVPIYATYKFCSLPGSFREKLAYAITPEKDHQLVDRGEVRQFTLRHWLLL
Chain of Monoamine transporters; serotonin & dopamine (Rattus norvegicus) (P31652 whole entry, looked up): as the sequence (P31652 whole entry) above
Chain of Sodium-dependent dopamine transporter (P23977 whole entry): as the sequence (P23977 whole entry, looked up) above
Chain of Norepinephrine transporter (Q9WTR4 whole entry): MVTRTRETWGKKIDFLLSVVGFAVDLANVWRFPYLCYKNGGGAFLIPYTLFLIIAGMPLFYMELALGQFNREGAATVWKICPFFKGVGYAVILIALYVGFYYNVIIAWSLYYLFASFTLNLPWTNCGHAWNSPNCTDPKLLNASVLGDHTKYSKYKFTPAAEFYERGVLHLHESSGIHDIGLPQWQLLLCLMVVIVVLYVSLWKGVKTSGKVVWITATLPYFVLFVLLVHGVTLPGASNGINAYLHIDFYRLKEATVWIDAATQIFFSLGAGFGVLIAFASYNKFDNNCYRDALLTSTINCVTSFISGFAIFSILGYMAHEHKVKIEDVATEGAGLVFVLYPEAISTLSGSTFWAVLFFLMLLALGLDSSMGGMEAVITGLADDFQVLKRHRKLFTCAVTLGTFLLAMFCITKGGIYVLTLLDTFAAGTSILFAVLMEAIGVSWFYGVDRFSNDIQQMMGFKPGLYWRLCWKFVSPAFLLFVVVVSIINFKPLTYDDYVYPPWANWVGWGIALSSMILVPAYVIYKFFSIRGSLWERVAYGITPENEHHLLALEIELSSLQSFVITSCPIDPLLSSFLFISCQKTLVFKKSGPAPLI

For `C[C@@H]1CN(CCCN(c2ccc(F)cc2)c2ccc(F)cc2)C[C@@H](C)N1CCc1ccc(Cl)c(Cl)c1`, the Ki in assay [1] stood at 0.18 µM; in assay [2] it was 4.35 µM.

In turn, `CCCN1CCC[C@@H](c2cccc(O)c2)C1` [PRECLAMOL] returned an inhibition constant (Ki) in assay [1] of 3.27 µM.

For the compound `C[C@@H]1CN(CCCN(c2ccccc2)c2ccccc2)C[C@@H](C)N1`, the Ratio amounted to 8 in assay [3], 87 in assay [4] and 0.2 in the assay filed under Cavia porcellus.

As to `C[C@@H]1CN(CCCN(c2ccccc2)c2ccccc2)C[C@@H](C)N1CCCc1ccccc1`, the figures for the Ratio (in assay [3]; in assay [4]; in the assay listed under Cavia porcellus) were 60, 20 and 1.6, respectively.

`C[C@@H]1CN(CCCn2c3ccccc3c3ccccc32)C[C@@H](C)N1C` yielded an inhibition constant (Ki) in assay [1] of 0.436 µM. In addition, the Ratio in the assay filed under Cavia porcellus stood at 1.3.

Regarding `OC(CCN1CCN(CCCN(c2ccc(F)cc2)c2ccc(F)cc2)CC1)c1ccccc1` (configuration not stated), the Ki in assay [1] came out at 0.0085 µM; in assay [2], 0.803 µM.

In turn, `C[C@@H]1CN(CCCN(c2ccc(F)cc2)c2ccc(F)cc2)C[C@@H](C)N1` returned an inhibitory constant (Ki) in assay [1] of 0.0771 µM. In addition, the results for the Ratio (in assay [3]; in assay [4]; in the assay listed under Cavia porcellus) were 219, 170 and 1.6, respectively.

With `C[C@@H]1CN(CCCn2c3ccccc3c3ccccc32)C[C@@H](C)N1CCCc1ccccc1`, the affinity in assay [1] corresponds to a Ki of 0.263 µM. In addition, the Ratio in the assay listed under Cavia porcellus was determined as 0.4.

For the compound `C[C@@H]1CN(CCCn2c3ccc([N+](=O)[O-])cc3c3cc([N+](=O)[O-])ccc32)C[C@@H](C)N1`, the Ki in assay [1] turned out to be 174 µM.

Consider `C[C@@H]1CN(CCCN(c2ccc(F)cc2)c2ccc(F)cc2)C[C@@H](C)N1CCCc1ccccc1`, for which the inhibition constant Ki in assay [1] came out at 0.0228 µM; at Sigma 2 receptor, 0.0186 µM. Besides, the Ratio was 45 in assay [3], 94 in assay [4] and 0.5 in the assay filed under Cavia porcellus.

Compound `CCN(CC)CCOC(=O)C1(c2ccccc2)CCCC1` returned a Ki in assay [1] of 5.18 µM.

In assay [1], `C[C@@H]1CN(CCCn2c3ccc(Br)cc3c3cc(Br)ccc32)C[C@@H](C)N1` had a Ki of 3.89 µM. In the assay filed under Cavia porcellus, the Ratio was 1.1.

In the case of `Fc1ccc(N(CCCN2CCN(Cc3ccccc3)CC2)c2ccc(F)cc2)cc1`, the Ki came to 0.0276 µM in assay [1], 5.21 µM in assay [5], 3.73 µM in assay [2] and 0.0781 µM at Sigma 2 receptor. Also, the Ratio amounted to 190 in assay [3], 140 in assay [4] and 0.5 in the assay listed under Cavia porcellus.

In turn, `C[C@@H]1CN(CCCn2c3ccccc3c3cc([N+](=O)[O-])ccc32)C[C@@H](C)N1` registered an inhibitory constant (Ki) in assay [1] of 0.109 µM. In the assay listed under Cavia porcellus, the Ratio worked out at 5.5.

Take `Fc1ccc(N(CCCN2CCN(CCCc3ccccc3)CC2)c2ccc(F)cc2)cc1`: the inhibition constant Ki in assay [1] stood at 0.0181 µM; in assay [5], 0.682 µM; in assay [2], 1.21 µM. Also, the Ratio in assay [3] turned out to be 38; in assay [4], 67; in the assay listed under Cavia porcellus, 3.7.

With `Fc1ccc(N(CCCN2CCNCC2)c2ccc(F)cc2)cc1`, the inhibitory constant (Ki) in assay [1] was found to be 0.0608 µM; in assay [5] it was 0.396 µM; in assay [2] it was 0.133 µM; on Sigma 2 receptor, 0.385 µM. For the same compound, the results for the Ratio (in assay [3]; in assay [4]; in the assay filed under Cavia porcellus) were 7, 2 and 23, respectively.

With `C[C@@H]1CN(CCCN(c2ccccc2)c2ccccc2)C[C@@H](C)N1CCc1ccc(Cl)c(Cl)c1`, the figures for the inhibition constant Ki (in assay [1]; at Sigma 2 receptor) were 0.272 µM and 0.216 µM, respectively. Moreover, the Ratio was > 110 in assay [3], 18 in assay [4] and 0.1 in the assay listed under Cavia porcellus.

For the compound `C[C@@H]1CN(CCCn2c3ccccc3c3cc(N)ccc32)C[C@@H](C)N1`, in assay [1], the Ki is 2.4 µM. For the same compound, the Ratio in the assay listed under Cavia porcellus is 2.4.
